Test results from US20150159167A1, “Plants Tolerant to HPPD Inhibitor Herbicides” (Bayer CropScience AG, priority 2009, published 2015).
Where “and” joins values, the source holds several entries; their conditions need not be identical. Equal entries are not always repeated.

Experiments:
[1] = target: Synechococcus sp. HPPD "SEQ ID No. 5"; experiment: HPLC assay of HPPD activity, in vitro kinetic properties; type: biochemical; conditions: 2 mM HPP
Description: Km, Vmax, and kcat values for different HPPD enzyme preparations and Ki, K1=Kon, and K−1=Koff for different HPPD inhibitors were determined using a HPLC assay for measurements of HPPD activity. […] All assays were started by the addition of HPPD enzyme to the assay mixture and stopped at a series of times between 0 and 240 s by addition of 200 μl of the reaction mixture to reaction assay tubes containing 20 μl 10% perchloric acid. Precipitated protein was pelleted by a 5 minute centrifugation at 10,000 g. […] A standard set of concentrations of HGA were used to provide a standard curve in order to calibrate the 292 nm absorbance of the HGA peak versus HGA concentration.
For Km and Vmax value determinations the initial rates of the HPPD reaction at different substrate concentrations were determined from plots of HGA formed versus time and fitted to the Michaelis-Menten equation for unireactant enzymes using the ID Business Solutions Ltd. (idbs.com) XLfit software suite. For the determination of Ki, K1=Kon, and K=−1=Koff values the time-courses of the HPPD reaction at different inhibitor concentrations were fitted to the equations for Mechanism A, competitive inhibition, for tight-binding inhibitors (Cha, S. (1975) Tight-binding inhibitors-I. Kinetic behaviour. Biochemical Pharmacology 24, 2177-2185) using the ID Business Solutions Ltd. XLfit software suite
In below given table 1, “Km” (Michaelis-Menten constant) means the kinetic parameter that is used to characterise an enzyme, and it is defined as the concentration of substrate that permits half maximal rate of the reaction. Km is further defined as the substrate concentration at which the reaction rate reaches half of its maximum value (Vmax/2) where Vmax has the meaning of being the maximum velocity of the reaction.
Kon=K1 equals the association rate constant of the […] binding and Koff=K−1 equals the rate constant of the enzyme-inhibitor complex dissociation. Ki defines the inhibition constant.

[2] = tested on: Synechococcus sp. HPPD "SEQ ID No. 5"; experiment: HPPD activity in presence of HPPD inhibitors (pI50, % inhibition); type: biochemical
Source text: In this content, pI50-value means the log value of the concentration of inhibitor necessary to inhibit 50% of the enzyme activity in molar concentration.

[3] = tested on: T1 tobacco plants containing FMP38e (Synechococcus sp. HPPD FMP38); experiment: Glasshouse trial, herbicidal damage after spray; type: in vivo, Nicotiana tabacum; conditions: 7 DAT, 100 gAI/ha spray
Description: T0 Tobacco plants containing either the gene from Arabidopsis coding for HPPD or the gene FMP38e from Synechococcus sp. coding for FMP38 HPPD, mentioned above (Example3), were transferred to the glasshouse (28/20° C.), to develop further and produce seeds. Those seeds were harvested and put on soil (ED73 mixed with sand and osmocote Pro) to germinate in the glasshouse (28/20° C.). Three to four weeks later, plantlets were transferred to single pots containing the soil mentioned above. Two weeks later, plants of a size 4-6 cm diameter were sprayed with either • tembotrione at 100 gAI/ha prepared from a WP20 (wettable powder 20%) formulation supplemented with ammonium sulfate and methyl ester raps oil, or • isoxaflutole at 100 gAI/ha prepared from a WP20 formulation supplemented with ammonium sulfate and methyl ester raps oil, or • “blind formulation” made from a WP20 formulation without active ingredient (AI) supplemented with ammonium sulfate and methyl ester raps oil, and were then transferred to a growth chamber with adequate light conditions (20000 Lux). […]

[4] = tested on: T0 tobacco plants containing FMP38t; experiment: Response of T0 tobacco plants expressing the FMP38 HPPD to tembotrione; type: in vivo, Nicotiana tabacum; conditions: 100 g AI/ha, two weeks after the treatment
Source text: As an example, rooted plants containing the T-DNA PromCaMV35S-OTP-HIS6-FMP38t-TerCaMV35S, will be transferred to the greenhouse under standard growth conditions. Following a period of acclimation of two weeks, the T0 plants will be treated with a mixture containing 100 g tembotrione/ha prepared from a WP20 (wettable powder 20%) formulation supplemented with ammonium sulfate and methyl ester raps oil. Two weeks after the treatment, the symptoms due to the application of the herbicides will be evaluated. The plants are classified in four categories. The treated plants evaluated as “0” are looking like the untreated tobacco plants. The plants evaluated as “1” display temporarily light bleaching phenotype due to the application of the herbicides. The plants evaluated as “2” display permanent light to strong bleaching symptoms. Finally the plants evaluated as “3” are looking like wild type tobacco plants submitted to the same treatment.

`CS(=O)(=O)c1ccc(C(=O)C2C(=O)CCCC2=O)c(Cl)c1COCC(F)(F)F` [Tembotrione, 2-[2-chloro-4-(methylsulfonyl)-3-[(2,2,2,-tri-fluoroethoxy)methyl]benzoyl]-1,3-cyclo-hexanedione] was tested, and the Ki [1] was 1200 nM, the “k1 (Kon)” value [1] was 41000 M⁻¹ s⁻¹ and the “k−1 (Koff)” value [1] was 0.05 s⁻¹. For the same molecule, the pI50 ([2]; 2 mM HPP, 3 minutes incubation) was 5.6, the percentage of inhibition ([2]; 5.0 × 10^−6 M inhibitor, compared to activity in absence of inhibitor) was 79% and the “% injury” value ([3]; line 34, one value per plant) was 30%. For the same molecule, the “% injury” value ([3]; line 39, one value per plant) was 0% and 5%, the “number of plants in category 0 (looking like the untreated tobacco plants)” value [4] was 1 and the “number of plants in category 1 (temporarily light bleaching phenotype)” value [4] was 1. For the same molecule, the “number of plants in category 3 (looking like wild type tobacco plants submitted to the same treatment)” value [4] was 14.
